Laboratory results reported in US20250179052A1, “PYRIMIDINYL-OXY-QUINOLINE BASED HERBICIDAL COMPOUNDS” (SYNGENTA CROP PROTECTION AG, priority 2022, published 2025).

How the values were obtained:
Conditions in all cases: 250 g/ha, evaluated after 13 days, five-point scale
[1] = tested on: Echinochloa crus-galli (ECHCG); experiment: Post-emergence herbicidal glasshouse test; assay type: in vivo
[2] = tested on: Amaranthus retoflexus (AMARE); experiment: Post-emergence herbicidal glasshouse test; assay type: in vivo
[3] = tested on: Ipomoea hederacea (IPOHE); experiment: Post-emergence herbicidal glasshouse test; assay type: in vivo
AMAPA [4] = experiment: Post-emergence herbicidal glasshouse test; assay type: in vivo, Amaranthus tuberculatus
[5] = tested on: Echinochloa crus-galli (ECHCG); experiment: Pre-emergence herbicidal glasshouse test; assay type: in vivo
[6] = tested on: Amaranthus retoflexus (AMARE); experiment: Pre-emergence herbicidal glasshouse test; assay type: in vivo
[7] = tested on: Ipomoea hederacea (IPOHE); experiment: Pre-emergence herbicidal glasshouse test; assay type: in vivo
AMAPA [8] = experiment: Pre-emergence herbicidal glasshouse test; assay type: in vivo, Amaranthus tuberculatus

SMILES | percentage damage caused to the plant, ECHCG [1] | percentage damage caused to the plant, AMARE [2] | percentage damage caused to the plant, IPOHE [3] | percentage damage caused to the plant, AMAPA (AMAPA [4]) | percentage damage caused to the plant, ECHCG [5] | percentage damage caused to the plant, AMARE [6] | percentage damage caused to the plant, IPOHE [7] | percentage damage caused to the plant, AMAPA (AMAPA [8])
FC(F)(Cl)c1ncc2c(Oc3ncc(Cl)cn3)cccc2n1 [Compound 1.057] | 4 (4=61-80%) | 4 (4=61-80%) | 4 (4=61-80%) | 4 (4=61-80%) | 5 (5=81-100%) | 5 (5=81-100%) | 5 (5=81-100%) | 5 (5=81-100%)
Cc1cnc(Oc2ccc(Cl)c3nc(C(F)(F)Cl)ncc23)nc1 [Compound 1.037] | 1 (1=0-20%) | 2 (2=21-40%) | 1 (1=0-20%) | 2 (2=21-40%) | 1 (1=0-20%) | 5 (5=81-100%) | 1 (1=0-20%) | 4 (4=61-80%)
Fc1cnc(Oc2ccc(Cl)c3nc(C(F)(F)Cl)ncc23)nc1 [Compound 1.043] | 1 (1=0-20%) | 3 (3=41-60%) | 2 (2=21-40%) | 3 (3=41-60%) | 1 (1=0-20%) | 4 (4=61-80%) | 1 (1=0-20%) | 4 (4=61-80%)
COc1ncc2c(Oc3ncc(F)cn3)ccc(Br)c2n1 [Compound 1.030] | 1 (1=0-20%) | 2 (2=21-40%) | 1 (1=0-20%) | 3 (3=41-60%) | 1 (1=0-20%) | 1 (1=0-20%) | 1 (1=0-20%) | 1 (1=0-20%)
Cc1ccc(Oc2ncc(Cl)cn2)c2cnc(C(F)(F)F)nc12 [Compound 1.028] | 1 (1=0-20%) | 2 (2=21-40%) | 2 (2=21-40%) | 3 (3=41-60%) | 2 (2=21-40%) | 5 (5=81-100%) | 1 (1=0-20%) | 5 (5=81-100%)
Fc1cnc(Oc2cccc3nc(C(F)(F)F)ccc23)nc1 [Compound 1.042] | 4 (4=61-80%) | 5 (5=81-100%) | 4 (4=61-80%) | 5 (5=81-100%) | 5 (5=81-100%) | 5 (5=81-100%) | 5 (5=81-100%) | 5 (5=81-100%)
Cc1ccc(Oc2ncc(F)cn2)c2ccc(C(F)(F)F)nc12 [Compound 1.029] | 1 (1=0-20%) | 3 (3=41-60%) | 2 (2=21-40%) | 4 (4=61-80%) | 1 (1=0-20%) | 2 (2=21-40%) | 1 (1=0-20%) | 3 (3=41-60%)
Fc1cnc(Oc2cccc3nc(C(F)(F)Cl)ncc23)nc1 [Compound 1.061, 2-[chloro(difluoro)methyl]-5-(5-fluoropyrimidin-2-yl)oxy-quinazoline] | 4 (4=61-80%) | 4 (4=61-80%) | 4 (4=61-80%) | 4 (4=61-80%) | 5 (5=81-100%) | 5 (5=81-100%) | 5 (5=81-100%) | 5 (5=81-100%)
FC(F)c1ncc2c(Oc3ncc(Br)cn3)ccc(Cl)c2n1 [Compound 1.039] | 1 (1=0-20%) | 2 (2=21-40%) | 1 (1=0-20%) | 2 (2=21-40%) | 1 (1=0-20%) | 1 (1=0-20%) | 1 (1=0-20%) | 1 (1=0-20%)
